Measured values published in US12162892B2, “CD16a binding agents and uses thereof” (KLEO PHARMACEUTICALS, INC., priority 2018, dated 2024).
Values joined by “and” are separate entries in the source; they are usually repeats but may differ in a detail not shown here. Equal entries are not always repeated.

Assays:
CD16a158V [1] = target: T1, CD16a158V (Homo sapiens, UniProt P08637, F176V); assay: Biotinylated Ligand ELISA Assay; assay type: binding; conditions: Biotinylated CD16a protein at 10 nM
T1 sequence (P08637 17-208 F176V): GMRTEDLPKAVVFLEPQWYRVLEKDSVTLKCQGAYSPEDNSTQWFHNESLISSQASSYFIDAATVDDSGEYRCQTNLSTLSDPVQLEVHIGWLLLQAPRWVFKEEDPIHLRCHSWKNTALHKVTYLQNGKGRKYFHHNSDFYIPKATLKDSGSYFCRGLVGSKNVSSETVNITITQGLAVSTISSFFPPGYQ
Protocol: (§1) Coat ELISA plates (Costar 3922) using Neutravidin (Thermo 31000) at 5 μg/ml (100 μl/well) for 1 hour at 37° C. Plates were washed 4 times with PBST (PBS, 0.05% Tween 20-200 μl, 1 minute/wash) then blocked using 200 μl 5% bovine serum albumin (BSA, Heat Shock, Fraction V-American Bio AB01088-00100) in PBST for 2 hours at 25° C. with moderate shaking. BSA was removed and plates were washed. Biotinylated ligands diluted in PBSTB (PBST+0.1% BSA) were then added (100 μl/well) and incubated for 1 hour at 25° C. with gentle shaking. Ligands were removed and plates were washed. Any remaining unoccupied neutravidin binding sites were blocked by adding 100 μM Biotin (Fisher BP232-1) (100 μl/well) and incubated for 1 hour at 25° C. with gentle shaking. Plates were then washed. […] Protein was removed and plates were washed. Streptavidin-HRP (Invitrogen 434323) diluted 1:5000 in PBSTB was added (100 μl/well) and incubated for 1 hour at 25° C. with gentle shaking. Wash plates. Substrate (Super Signal ELISA Pico Chemiluminescent Substrate-Thermo 37069) was added (100 μl/well) and plates were incubated for 5 minutes at 25° C. with gentle shaking. Luminescence was then measured on the Biotek Synergy H1 microplate reader.

CD64 = CD64 (Homo sapiens, UniProt P12314); assay: Biotin ELISA, interaction with various receptors (Example 55); assay type: binding; conditions: three replicate values per compound
Chain of CD64 (P12314 16-374): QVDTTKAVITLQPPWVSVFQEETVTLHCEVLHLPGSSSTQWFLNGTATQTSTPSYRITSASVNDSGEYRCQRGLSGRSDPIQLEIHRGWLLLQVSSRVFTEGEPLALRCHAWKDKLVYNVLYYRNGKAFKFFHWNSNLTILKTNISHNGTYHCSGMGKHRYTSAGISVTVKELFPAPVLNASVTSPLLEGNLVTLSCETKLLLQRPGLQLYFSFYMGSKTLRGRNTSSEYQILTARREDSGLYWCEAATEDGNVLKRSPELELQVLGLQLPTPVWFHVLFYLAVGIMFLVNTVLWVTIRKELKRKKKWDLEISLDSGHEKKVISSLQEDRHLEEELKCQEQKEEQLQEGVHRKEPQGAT
Protocol: as §1
(§2) Using similar methods as Examples 47 or 53, interactions with a number of receptors were measured. In some embodiments, “stock” is antibody only, and “control” is an antibody that went through the same procedure except using DMSO only as opposed to a compound. When contacted with targeting moieties such as antibodies in the Examples, compounds, e.g., I-95, I-96, etc. can react through their reactive groups

CD16a158V [2] = target: T1, CD16a158V; assay: as above; assay type: binding; conditions: three replicate values per compound
Protocol: as §1, §2

CD3ed = CD3ed (Homo sapiens, UniProt P04234+P07766); assay: as above; assay type: binding; conditions: three replicate values per compound
Chain of CD3ed (P07766 23-126 limits assumed): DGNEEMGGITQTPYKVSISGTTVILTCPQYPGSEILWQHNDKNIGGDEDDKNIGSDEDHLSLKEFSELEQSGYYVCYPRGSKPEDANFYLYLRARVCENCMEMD
Chain of CD3ed (P04234 22-105 limits assumed): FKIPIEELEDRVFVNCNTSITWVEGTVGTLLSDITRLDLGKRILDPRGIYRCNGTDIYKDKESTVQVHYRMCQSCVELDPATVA
Protocol: as §1, §2

CD32b = target: T2, CD32b (Homo sapiens, UniProt P31994); assay: as above; assay type: binding; conditions: three replicate values per compound
T2 sequence (P31994 43-310): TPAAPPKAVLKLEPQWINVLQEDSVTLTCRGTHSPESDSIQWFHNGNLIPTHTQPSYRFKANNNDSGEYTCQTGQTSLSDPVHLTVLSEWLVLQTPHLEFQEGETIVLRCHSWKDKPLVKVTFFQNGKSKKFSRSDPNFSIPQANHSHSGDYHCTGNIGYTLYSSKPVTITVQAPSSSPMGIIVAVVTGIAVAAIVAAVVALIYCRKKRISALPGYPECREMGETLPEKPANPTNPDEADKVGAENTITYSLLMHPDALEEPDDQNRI
Protocol: as §1, §2

CD16a158F [3] = target: T3, CD16a158F (Homo sapiens, UniProt P08637); assay: as above; assay type: binding; conditions: three replicate values per compound
T3 sequence (P08637 17-208 limits assumed): as the sequence (P08637 17-208 F176V) above, with V160F counted along it
Protocol: as §1, §2

CD32a-R167 = assay: as above; assay type: binding; conditions: three replicate values per compound
Protocol: as §1, §2

CD32a H167 = target: T4, CD32a H167 (Homo sapiens, UniProt P12318); assay: as above; assay type: binding; conditions: three replicate values per compound
T4 sequence (P12318 36-218 limits assumed): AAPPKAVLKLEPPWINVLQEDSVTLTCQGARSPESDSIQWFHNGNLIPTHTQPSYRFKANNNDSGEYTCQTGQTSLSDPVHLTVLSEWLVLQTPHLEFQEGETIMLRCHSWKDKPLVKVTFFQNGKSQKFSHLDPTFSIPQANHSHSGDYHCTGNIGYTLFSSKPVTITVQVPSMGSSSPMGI
Protocol: as §1, §2

CD16a158F [4] = target: T3, CD16a158F; assay: Biotinylated Ligand ELISA Assay; assay type: binding; parameters: purchased Acro Biosystems CDA-H82E8; conditions: Biotinylated CD16a protein at 10 nM
Protocol: as §1

[5] = Biotin ELISA, No Protein (Example 55); assay type: binding; conditions: three replicate values per compound
Protocol: as §1, §2

primary monocytes = assay: ADCP assay using fresh primary monocytes; assay type: cell-based, human; conditions: beads loaded with test compound at 50 uM; 37C for 18 hrs
Protocol: Biotinylated fluorescent beads (Invitrogen, cat #P35372) were thoroughly mixed by vortexing for 1 min. Ten microliters of supplied bead suspension per treatment type were dispensed in Eppendorf tubes, and washed with 1 ml PBS […], then re-suspended in 500 uL of 1% BSA in PBS. Test compounds were added to bead suspensions to a final concentration of 50 uM, and biotinylated human IgG whole molecule (Rockland 009-0602) final concentration of 20 ug/mL.
Tubes were incubated at room temperature for 1 hr on a rocking platform.
Following incubation, beads were pelleted in a microcentrifuge at 12,000 g for 5 minutes at room temperature. Supernatants were carefully aspirated and beads were washed 5 times by resuspending in 1 ml of PBS 1% BSA, and centrifuging as described above. Finally, beads were resuspended in 500 ul of PBS 1% BSA and used in ADCP assay.
PBMC, freshly isolated from whole blood (Bioreclamation IVT0) using Ficoll-Paque density centrifugation were resuspended in serum-free, supplemented RPMI at 2×10^6 cells/mL.
Ten milliliters of the resulting cell suspension was seeded into 75-cm^2 tissue culture flask (Denville Scientific TC9341) and incubated 2-3 hr at 37° C. 5% CO2 to allow cell adhesion. Following incubation, media was decanted and surface of the flask was carefully washed twice, each time with 10 ml serum-free, supplemented RPMI to remove any residual non-adherent cells. To remove adherent cells, 10 mL of ice-cold 2.5 mM EDTA/PBS solution was added for 10 min on ice. Cells were transferred to a 15-ml conical tube and centrifuge 10 min at 300×g, room temperature, to remove the EDTA/PBS solution. Monocytes were then resuspended in RPMI 10% FCS at 5×10^5 cells/mL to be used in ADCP assay. Monocyte purity was assessed by staining cells with antibodies to human CD3 FITC (Biolegend 300306), CD19 PeCy7 (Biolegend 302216), CD14 BV421 (BD Biosciences, 565283), and CD16 (Biolegend 302046).
Monocytes or THP-1 cells (TIB-202 ATCC) were seeded into 96 well round bottom 96 well plates at the density of 10^5 cells per well in 200 ul, and 10 uL of fluorescent bead suspension prepared as described above was added to each well. Well contents were mixed by pipetting up and down using a multichannel pipet, and plates were incubated at 37C for 18 hrs. After incubation, well contents were transferred into flat bottom black 96 well plates (Costar #3358) and centrifuged for 2 minutes at 300 g to allow for better visualization of the cells. Images were taken using Zoe fluorescent cell imager (Biorad).

SMILES	Biotinylated Ligand ELISA-CD16a158V Binding (RLU) (CD16a158V [1])	Biotin ELISA Results CD64 (CD64)	Biotin ELISA Results CD16a-158V (CD16a158V [2])	Biotin ELISA Results CD3ed (CD3ed)	Biotin ELISA Results CD32b (CD32b)	Biotin ELISA Results CD16a-158F (CD16a158F [3])	Biotin ELISA Results CD32a-R167 (CD32a-R167)	Biotin ELISA Results CD32a-H167 (CD32a H167)	Biotinylated Ligand ELISA-CD16a158F Binding (RLU) (CD16a158F [4])	Biotin ELISA Results No Protein [5]	ACDP (primary monocytes)-normalized phagocytosis score (primary monocytes)
O=C(CCCC[C@@H]1SC[C@@H]2NC(=O)N[C@@H]21)NCCOCCOCCOCCOCCOCCOCCOCCOCCn1cc(-c2ccc(OCC(=O)N3CCC(N4CC(=O)N(c5ccccc5)C4=O)CC3)cc2)nn1 [Compound I-19, 5-[(3aS,4S,6aR)-2-oxo-hexahydro-1H-thieno[3,4-d]imidazol-4-yl]-N-{26-[4-(4-{2-[4-(2,4-dioxo-3-phenylimidazolidin-1-yl)piperidin-1-yl]-2-oxoethoxy}phenyl)-1H-1,2,3-triazol-1-yl]-3,6,9,12,15,18,21,24-octaoxahexacosan-1-yl}pentanamide]	D (a relative luminescence value (RLU) of 1-1,000)	40706 and 42386 and 41814	−544 and −988 and −964	1852 and 1310 and 797	2072 and 737 and 1622	−1097 and −1078 and −689	2048 and −50 and 349	276 and 696 and −362	D (a relative luminescence value (RLU) of 1-1,000)	1266 and 122 and 3990	–
O=C(CCCC[C@@H]1SC[C@@H]2NC(=O)N[C@@H]21)NCCOCCOCCOCCOCCOCCOCCOCCOCCn1cc(-c2ccc(NC(=O)N3CCC(N4CCN(Cc5ccccc5)C4=O)CC3)cc2)nn1 [Compound I-15, N-{4-[1-(26-{5-[(3aS,4S,6aR)-2-oxo-hexahydro-1H-thieno[3,4-d]imidazol-4-yl]pentanamido}-3,6,9,12,15,18,21,24-octaoxahexacosan-1-yl)-1H-1,2,3-triazol-4-yl]phenyl}-4-(3-benzyl-2-oxoimidazolidin-1-yl)piperidine-1-carboxamide]	B (a relative luminescence value (RLU) of 10,000-100,000)	43288 and 127129* and 49818	3136 and 3515 and 1518	7926 and 1921 and 46693*	10786 and 29882* and 8282	34842 and 7323* and 23569	11818 and 37679* and 11737	5263 and 6063 and 4354	B (a relative luminescence value (RLU) of 10,000-100,000)	3931 and 5958 and 23315*	–
O=C(CCCC[C@@H]1SC[C@@H]2NC(=O)N[C@@H]21)NCCOCCOCCOCCOCCOCCOCCOCCOCCn1cc(-c2cccc(NC(=O)N3CCC4(CC3)NC(=O)N(Cc3ccccc3)C4=O)c2)nn1 [Compound I-16, N-{3-[1-(26-{5-[(3aS,4S,6aR)-2-oxo-hexahydro-1H-thieno[3,4-d]imidazol-4-yl]pentanamido}-3,6,9,12,15,18,21,24-octaoxahexacosan-1-yl)-1H-1,2,3-triazol-4-yl]phenyl}-3-benzyl-2,4-dioxo-1,3,8-triazaspiro[4.5]decane-8-carboxamide]	D (a relative luminescence value (RLU) of 1-1,000)	40426 and 53812 and 48052	2543 and 5076 and 2414	3087 and 4575 and 2480	3985 and 5047 and 3438	19818 and 20544 and 2349*	8460 and 31058 and 13897	3600 and 3315 and 3632	D (a relative luminescence value (RLU) of 1-1,000)	4636 and 2801 and 5055	B (a normalized phagocytosis score of 1.5-2.0)
O=C(CCCC[C@@H]1SC[C@@H]2NC(=O)N[C@@H]21)NCCOCCOCCOCCOCCOCCOCCOCCOCCNC(=O)c1cnc(N2CCC3(CC2)NC(=O)N(c2ccccc2)C3=O)s1 [Compound I-13, 5-[(3aS,4S,6aR)-2-oxo-hexahydro-1H-thieno[3,4-d]imidazol-4-yl]-N-{26-[(2-{2,4-dioxo-3-phenyl-1,3,8-triazaspiro[4.5]decan-8-yl}-1,3-thiazol-5-yl)formamido]-3,6,9,12,15,18,21,24-octaoxahexacosan-1-yl}pentanamide]	–	45845 and 36876 and 49943	4673 and 4920 and 4565	4252 and 15476 and 72836*	7721 and 7105 and 9481	10817 and 15276 and 9605	8032 and 6483 and 10638	15516 and 14898 and 8681	–	6804 and 19233 and 14386	–
